From ChEMBL document CHEMBL1135389, “7-Substituted 5-amino-2-(2-furyl)pyrazolo[4,3-e]-1,2,4-triazolo[1,5-c]pyrimidines as A2A adenosine receptor antagonists: a study on the importance of modifications at the side chain on the activity and solubility” (J Med Chem, 2002)

Legend:
Adenosine receptor A2a [1] = target: T1, Adenosine receptor A2a (Homo sapiens, UniProt P29274); experiment: biochemical
Adenosine receptor A1 [2] = target: T2, Adenosine receptor A1 (Homo sapiens, UniProt P30542); experiment: biochemical
T2 sequence (P30542 whole entry): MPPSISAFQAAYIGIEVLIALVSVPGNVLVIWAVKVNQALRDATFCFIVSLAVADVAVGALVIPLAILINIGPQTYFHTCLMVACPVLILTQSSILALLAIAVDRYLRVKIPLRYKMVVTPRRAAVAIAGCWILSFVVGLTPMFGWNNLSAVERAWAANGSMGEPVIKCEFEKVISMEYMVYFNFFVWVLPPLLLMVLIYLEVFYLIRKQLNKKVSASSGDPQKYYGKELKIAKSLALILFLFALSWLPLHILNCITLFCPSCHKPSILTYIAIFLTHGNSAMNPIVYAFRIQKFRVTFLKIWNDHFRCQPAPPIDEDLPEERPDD
Description: Displacement of specific [3H]DPCPX binding at human Adenosine A1 receptor expressed in CHO cells.

Adenosine receptor A2b [3] = target: T3, Adenosine receptor A2b (Homo sapiens, UniProt P29275); experiment: biochemical
T3 sequence (P29275 whole entry): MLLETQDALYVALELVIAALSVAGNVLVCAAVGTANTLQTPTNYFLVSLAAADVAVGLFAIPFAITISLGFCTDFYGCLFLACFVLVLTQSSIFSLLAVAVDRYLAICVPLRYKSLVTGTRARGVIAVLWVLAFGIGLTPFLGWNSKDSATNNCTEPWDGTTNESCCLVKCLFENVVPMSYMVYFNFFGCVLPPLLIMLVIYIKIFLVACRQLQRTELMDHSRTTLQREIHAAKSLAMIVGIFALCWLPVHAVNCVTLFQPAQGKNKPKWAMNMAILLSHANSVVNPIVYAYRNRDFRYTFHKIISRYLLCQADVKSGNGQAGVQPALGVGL
Description: (§1) Displacement of specific [3H]DPCPX binding at human adenosine A2B receptor expressed in HEK293 cells.

Adenosine receptor A3 = target: T4, Adenosine receptor A3 (Homo sapiens, UniProt P0DMS8); experiment: Displacement of specific [3H]MRE3008-F20 binding at human adenosine A3 receptor expressed in CHO cells.; assay type: cell-based
T4 sequence (P0DMS8 whole entry): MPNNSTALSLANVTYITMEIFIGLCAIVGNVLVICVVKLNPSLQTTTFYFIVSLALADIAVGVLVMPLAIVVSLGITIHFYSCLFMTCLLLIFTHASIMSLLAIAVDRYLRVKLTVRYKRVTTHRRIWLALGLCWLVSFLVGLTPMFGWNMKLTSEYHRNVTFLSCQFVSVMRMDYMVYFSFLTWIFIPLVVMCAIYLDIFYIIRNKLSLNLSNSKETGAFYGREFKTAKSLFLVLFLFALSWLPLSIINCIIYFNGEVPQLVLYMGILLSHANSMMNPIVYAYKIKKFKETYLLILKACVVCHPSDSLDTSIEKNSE

Adenosine receptor A2a [4] = target: T1, Adenosine receptor A2a; experiment: Displacement of [3H]-SCH- 58261 from human Adenosine A2A receptor expressed in HEK293 cells; ranges from 4.95-6.08; assay type: cell-based
Adenosine receptor A1 [5] = target: T2, Adenosine receptor A1; experiment: Displacement of [3H]DPCPX from human Adenosine A1 receptor expressed in CHO cells; ranges from 1460-2201; assay type: cell-based
Adenosine receptor A1 [6] = target: T2, Adenosine receptor A1; experiment: Displacement of [3H]-DPCPX from human Adenosine A1 receptor expressed in CHO cells; ranges from 107-181; assay type: cell-based
Adenosine receptor A2a [7] = target: T1, Adenosine receptor A2a; experiment: Displacement of [3H]-SCH- 58261 binding at human Adenosine A2A receptor expressed in HEK293 cells; ranges from 129-152; assay type: cell-based
Adenosine receptor A1 [8] = target: T2, Adenosine receptor A1; experiment: Displacement of [3H]-DPCPX from human Adenosine A1 receptor expressed in CHO cells; ranges from 2153-2891; assay type: cell-based
Adenosine receptor A2a [9] = target: T1, Adenosine receptor A2a; experiment: Displacement of [3H]-SCH- 58261 binding at human Adenosine A2A receptor expressed in HEK293 cells; ranges from 0.69-0.92; assay type: cell-based
Adenosine receptor A1 [10] = target: T2, Adenosine receptor A1; experiment: Displacement of [3H]DPCPX binding at human Adenosine A1 receptor expressed in CHO cells; ranges from 8783-9911; assay type: cell-based
Adenosine receptor A2a [11] = target: T1, Adenosine receptor A2a; experiment: Displacement of [3H]-SCH- 58261 binding at human Adenosine A2A receptor expressed in HEK293 cells; ranges from 48.9-52.4; assay type: cell-based
Adenosine receptor A2a [12] = target: T1, Adenosine receptor A2a; experiment: Displacement of [3H]-SCH- 58261 binding at human Adenosine A2A receptor expressed in HEK293 cells; ranges from 98-144; assay type: cell-based
Adenosine receptor A1 [13] = target: T2, Adenosine receptor A1; experiment: Displacement of [3H]-DPCPX binding at human Adenosine A1 receptor expressed in CHO cells; ranges from 9257-9817; assay type: cell-based
Adenosine receptor A2a [14] = target: T1, Adenosine receptor A2a; experiment: biochemical; remark: listed apart in the source
Adenosine receptor A1 [15] = target: T2, Adenosine receptor A1; experiment: Displacement of [3H]DPCPX from human Adenosine A1 receptor expressed in CHO cells; ranges from 324-420; assay type: cell-based
Adenosine receptor A2a [16] = target: T1, Adenosine receptor A2a; experiment: Displacement of [3H]-SCH- 58261 binding at human Adenosine A2A receptor expressed in HEK293 cells; ranges from 66-85; assay type: cell-based
Adenosine receptor A1 [17] = target: T2, Adenosine receptor A1; experiment: Displacement of [3H]DPCPX binding at human Adenosine A1 receptor expressed in CHO cells; ranges from 5697-7171; assay type: cell-based
Adenosine receptor A2b [18] = target: T3, Adenosine receptor A2b; settings: hek293
Description: as §1

Adenosine receptor A1 [19] = target: T2, Adenosine receptor A1; experiment: Displacement of [3H]DPCPX from human Adenosine A1 receptor expressed in CHO cells; ranges from 9038-9773; assay type: cell-based
Adenosine receptor A2a [20] = target: T1, Adenosine receptor A2a; experiment: biochemical; remark: listed apart in the source
Adenosine receptor A1 [21] = target: T2, Adenosine receptor A1; experiment: Displacement of [3H]DPCPX binding at human Adenosine A1 receptor expressed in CHO cells; ranges from 363-514; assay type: cell-based
Adenosine receptor A1 [22] = target: T2, Adenosine receptor A1; experiment: Displacement of [3H]DPCPX from human Adenosine A1 receptor expressed in CHO cells; ranges from 3420-3788; assay type: cell-based
Adenosine receptor A2a [23] = target: T1, Adenosine receptor A2a; experiment: Displacement of [3H]-SCH- 58261 binding at human Adenosine A2A receptor expressed in HEK293 cells; ranges from 49-72; assay type: cell-based

T1 sequence (P29274 whole entry): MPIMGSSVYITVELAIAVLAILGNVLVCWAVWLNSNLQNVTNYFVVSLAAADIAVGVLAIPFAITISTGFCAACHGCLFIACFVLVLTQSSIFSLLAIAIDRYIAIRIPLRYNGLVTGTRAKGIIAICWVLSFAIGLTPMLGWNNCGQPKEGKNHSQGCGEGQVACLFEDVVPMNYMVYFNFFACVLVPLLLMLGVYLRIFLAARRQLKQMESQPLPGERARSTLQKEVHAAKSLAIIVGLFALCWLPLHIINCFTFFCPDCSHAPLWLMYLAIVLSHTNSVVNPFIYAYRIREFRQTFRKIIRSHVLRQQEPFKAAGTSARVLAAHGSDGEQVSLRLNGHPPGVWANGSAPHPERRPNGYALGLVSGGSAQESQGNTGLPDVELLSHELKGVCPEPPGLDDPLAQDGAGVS

Structure (SMILES) | Ki (Adenosine receptor A2a [1]) [µM] | Ki (Adenosine receptor A1 [2]) [µM] | Ki (Adenosine receptor A2b [3]) [µM] | Ki (Adenosine receptor A3) [µM] | other results
N#Cc1ccc(CCCn2ncc3c2nc(N)n2nc(-c4ccco4)nc32)cc1 | 0.086 | 6.5 | > 10 | > 10 | 
Nc1nc2c(cnn2CCCc2ccc(C(=O)O)cc2)c2nc(-c3ccco3)nn12 | 0.0044 | 4.96 | > 10 | > 10 | 
Nc1nc2c(cnn2CCc2ccc(S(=O)(=O)N(CCCl)CCCl)cc2)c2nc(-c3ccco3)nn12 | 0.00059 | 5.3 | > 10 | > 10 | 
CCOC(=O)[C@@H]1Oc2ccc(CCCn3ncc4c3nc(N)n3nc(-c5ccco5)nc43)cc2O1 |  |  | > 10 | > 10 | Ki (Adenosine receptor A2a [4]): 0.00548 µM; Ki (Adenosine receptor A1 [5]): 1.79 µM
Nc1nc2c(cnn2CCCc2ccc(S(=O)(=O)O)cc2)c2nc(-c3ccco3)nn12 |  |  | > 10 | > 10 | Ki (Adenosine receptor A1 [6]): 0.139 µM; Ki (Adenosine receptor A2a [7]): 0.14 µM
Nc1nc2c(cnn2CCc2ccc(S(=O)(=O)N(CCO)CCO)cc2)c2nc(-c3ccco3)nn12 |  |  | > 10 | > 10 | Ki (Adenosine receptor A1 [8]): 2.5 µM; Ki (Adenosine receptor A2a [9]): 0.0008 µM
N/C(=N/O)c1ccc(CCCn2ncc3c2nc(N)n2nc(-c4ccco4)nc32)cc1 | 0.006 | 0.06 | > 10 | > 10 | 
Nc1nc2c(cnn2CCCc2ccccc2)c2nc(-c3ccco3)nn12 [SCH-63390] | 0.0012 | 0.35 | > 10 |  | 
N=C(N)c1ccc(CCCn2ncc3c2nc(N)n2nc(-c4ccco4)nc32)cc1 | 0.055 | 0.075 | > 10 | > 10 | 
Nc1nc2c(cnn2CCc2ccc(N(CCO)CCO)cc2)c2nc(-c3ccco3)nn12 | 0.00012 | 0.123 | > 10 | > 10 | 
NCc1ccc(CCCn2ncc3c2nc(N)n2nc(-c4ccco4)nc32)cc1 | 0.006 | 0.06 | > 10 | > 10 | 
Nc1nc2c(cnn2CCc2ccc(S(=O)(=O)NCC(=O)O)cc2)c2nc(-c3ccco3)nn12 |  |  | > 10 | > 10 | Ki (Adenosine receptor A1 [10]): 9.33 µM; Ki (Adenosine receptor A2a [11]): 0.05 µM
Nc1nc2c(cnn2CCCc2ccc3c(c2)OC(C(=O)O)(C(=O)O)O3)c2nc(-c3ccco3)nn12 [listing 1 of 2 here] |  |  | > 10 | > 10 | Ki (Adenosine receptor A2a [12]): 0.12 µM; Ki (Adenosine receptor A1 [13]): 9.53 µM
CN1CCN(S(=O)(=O)c2ccc(CCn3ncc4c3nc(N)n3nc(-c5ccco5)nc43)cc2)CC1 |  |  | > 10 | > 10 | Ki (Adenosine receptor A2a [14]): 0.0038 µM; Ki (Adenosine receptor A1 [15]): 0.369 µM
Nc1nc2c(cnn2CCCc2cc3c(cc2S(=O)(=O)O)OCO3)c2nc(-c3ccco3)nn12 |  |  | > 10 | > 10 | Ki (Adenosine receptor A2a [16]): 0.075 µM; Ki (Adenosine receptor A1 [17]): 6.39 µM
CCOC(=O)c1ccc(CCCn2ncc3c2nc(N)n2nc(-c4ccco4)nc32)cc1 | 0.004 | 4.49 | > 10 | > 10 | 
Nc1nc2c(cnn2CCCc2ccc(N(CCO)CCO)cc2)c2nc(-c3ccco3)nn12 | 0.0011 | 0.558 | > 10 | > 10 | 
CC(=O)Nc1ccc(CCn2ncc3c2nc(N)n2nc(-c4ccco4)nc32)cc1 | 0.0048 | 0.419 | > 10 | > 10 | 
Nc1nc2c(cnn2CCc2ccc(S(=O)(=O)O)cc2)c2nc(-c3ccco3)nn12 | 0.1 | 0.19 | > 10 | > 10 | 
Nc1nc2c(cnn2CCCc2ccc3c(c2)OC(C(=O)O)(C(=O)O)O3)c2nc(-c3ccco3)nn12 [listing 2 of 2 here] |  |  |  |  | Ki (Adenosine receptor A2b [18]): > 10 µM; Ki (Adenosine receptor A2a [12]): 0.12 µM; Ki (Adenosine receptor A3; cho): > 10 µM; Ki (Adenosine receptor A1 [19]): 9.4 µM
Nc1nc2c(cnn2CCCc2ccc([N+](=O)[O-])cc2)c2nc(-c3ccco3)nn12 | 0.001 | 1.03 | > 10 | > 10 | 
Nc1nc2c(cnn2CCc2ccc(S(N)(=O)=O)cc2)c2nc(-c3ccco3)nn12 | 0.00131 | 2.63 | > 10 | > 10 | 
CCOC(=O)COc1ccc(CCn2ncc3c2nc(N)n2nc(-c4ccco4)nc32)cc1 | 0.00043 | 4.2 | > 10 | > 10 | 
N/C(=N\O)c1ccc(CCn2ncc3c2nc(N)n2nc(-c4ccco4)nc32)cc1 | 0.00018 | 0.179 | > 10 | > 10 | 
Nc1ccc(CCCn2ncc3c2nc(N)n2nc(-c4ccco4)nc32)cc1 | 0.00022 | 2.16 | > 10 | > 10 | 
Nc1ccc(CCn2ncc3c2nc(N)n2nc(-c4ccco4)nc32)cc1 | 0.00013 | 0.576 | > 10 | > 10 | 
Nc1nc2c(cnn2CCCc2ccc3c(c2)OC(CO)(CO)O3)c2nc(-c3ccco3)nn12 |  |  | > 10 | > 10 | Ki (Adenosine receptor A2a [20]): 0.00019 µM; Ki (Adenosine receptor A1 [21]): 0.432 µM
Nc1nc2c(cnn2CCCc2ccc3c(c2)O[C@H](C(=O)O)O3)c2nc(-c3ccco3)nn12 |  |  | > 10 | > 10 | Ki (Adenosine receptor A1 [22]): 3.6 µM; Ki (Adenosine receptor A2a [23]): 0.059 µM
